{"source": "patent US10842800B2", "about": "“Concomitant administration of glucocorticoid receptor modulators and CYP3A inhibitors” (Corcept Therapeutics, Inc., priority 2017, dated 2020)", "assay_type_in_all_cases": "in vivo, human", "key": {"[1]": {"assay": "Effect of oral ketoconazole 400 mg OD or 200 mg BID on plasma pharmacokinetics of a 300 mg single dose of mifepristone, fasted (Example 1)", "details": "for AUC: male, human, plasma, oral, read-out: AUCtot (mean)", "description": "This study was an open-label study in healthy male subjects.\nHealthy male volunteers between the ages of 18 to 45 years of age with a body mass index (BMI) ranging between 19 and 32 kg/m2 and a weight of at least 60 kg (132 lbs) were enrolled. Subjects had no clinically significant abnormal findings on the physical examination, ECG, blood pressure, heart rate, medical history, or clinical laboratory results during screening. The QTc interval at screening was less than 450 msec.\nIn cohort 1, six subjects received ketoconazole 400 mg OD for 14 days.\nSubjects remained in the clinic on Days 2 and 3 to receive 400 mg OD oral ketoconazole fasted, and for safety evaluation and collection of blood pharmacokinetic (PK) samples. Subjects were discharged from the clinic on Day 4 following administration of 400 mg OD oral ketoconazole fasted, and returned to the clinic the mornings of Days 5 through 13 to receive 400 mg OD oral ketoconazole fasted.\nIn cohort 2, six subjects received ketoconazole 200 mg BID for 14 days. […] All 12 subjects completed the study. Cohort 2 subjects participated in a Screening visit to assess eligibility and a check-in Day (Day −1) during which eligibility was re-confirmed. […] The evening of Day 1, subjects received 200 mg oral ketoconazole. Subjects remained in the clinic on Days 2, 3 and 4 to receive 200 mg BID oral ketoconazole, and for safety evaluation and collection of blood pharmacokinetic (PK) samples. Subjects were discharged from the clinic on Day 4 following evening administration of 200 mg oral ketoconazole, and returned to the clinic the morning and evening of Days 5 through 13 to receive 200 mg BID oral ketoconazole. Morning doses of ketoconazole on Days 0-13 were administered in the fasted state.\n(§1) Subjects in both cohorts returned to the study center on Day 15 for safety monitoring, and completion of the Termination Visit procedures, followed by discharge from the study. Safety was assessed by spontaneously reported adverse events, physical examinations, and routine clinical laboratory tests. To the extent possible, any adverse events deemed study drug-related and that were ongoing at the time of discharge from the study were followed-up to resolution or until a determination is made that the unresolved event was stable.\nDescriptive statistics (count, mean, median, standard deviation, minimum, maximum, and % coefficient of variation) were provided. […] Comparisons with previous study data were made."}, "[2]": {"assay": "Liver function of a patient with excess cortisol on ketoconazole plus reduced mifepristone dose (Examples 4-7)", "details": "concomitant ketoconazole"}, "[3]": {"assay": "Effect of a 400 mg single dose of ketoconazole on PK of an 8-day regimen of 300 mg or 600 mg OD mifepristone, moderate fat breakfast (Example 2)", "description": "This was an open-label study in healthy male subjects. […] The 400 mg single dose of ketoconazole was given to all subjects on day 8.\nMETHODOLOGY: Twelve subjects were enrolled, six in Cohort 1 and 6 in Cohort 2.\nSubjects were discharged on Day 11.\nSubjects were discharged on Day 11. Subjects in both cohorts returned to study center on Day 13 for safety monitoring, collection of the 120-hour PK draw, and completion of the Termination Visit procedures, followed by discharge from the study. To the extent possible, any adverse events deemed study drug-related and that were ongoing at the time of discharge from the study were followed-up to resolution or until a determination was made that the unresolved event was stable.\nDIAGNOSIS AND MAIN […] FOR INCLUSION: Healthy male volunteers between the ages of 18 to 45 years of age with a body mass index (BMI) ranging between 19 and 32 kg/m2 and a weight of at least 60 kg (132 lbs) were enrolled. Subjects had no clinically significant abnormal findings on the physical examination, ECG, blood pressure, heart rate, medical history, or clinical laboratory results during screening. The QTc interval at screening was less than 450 msec.\nDURATION OF TREATMENT: Up to a total of 28 days, including up to 2 weeks screening, dosing on Days 1-8, safety observation, and PK sample collection through Day 13.\nDescriptive statistics count, mean, median, standard deviation, minimum, maximum, and % coefficient of variation) were provided. Ketoconazole concentrations were listed and summarized. GM means of Cmax and total AUC were compared for the single dose in this study to the combined data of reported 400 mg single doses of ketoconazole of healthy subjects from the literature."}, "[4]": {"assay": "Safety assessment: adverse events, physical examinations, laboratory tests (Example 2)", "description": "Safety was assessed by spontaneously reported adverse events, physical examinations, and routine clinical laboratory tests. Adverse event data were tabulated. Physical findings and laboratory test results were listed by subject."}, "[5]": {"assay": "Safety: adverse events, laboratory tests, vital signs, ECG (Example 3)", "details": "mifepristone 600 mg OD Days 1-17, ketoconazole 200 mg BID Days 13-17"}, "[6]": {"assay": "Effect of ketoconazole 200 mg BID on PK of mifepristone 600 mg OD and metabolites, with food (Example 3)", "description": "A single dose of ketoconazole was administered on Day −1.\nThe study was a two period study design."}, "[7]": {"assay": "Safety assessment: adverse events, laboratory tests, ECG (Example 1)", "description": "as §1"}, "[8]": {"assay": "Cross-study comparison of exposure to mifepristone and metabolites with historic 1200 mg OD mifepristone study (Example 3)"}, "[9]": {"details": "MIFE 300 mg single dose fasted, C1: Keto 400 mg OD"}, "[10]": {"details": "Cohort 2 (600 mg OD), between Day 7 and Day 8"}, "[11]": {"details": "900 mg mifepristone daily with inhibition of CYP3A (extrapolated from 600 mg data)"}, "[12]": {"details": "Test: Day 17, 600 mg mifepristone OD + 200 mg ketoconazole BID, Reference: Day 12, 600 mg mifepristone OD"}, "[13]": {"details": "Test: present study Day 17, 600 mg mifepristone OD + 200 mg ketoconazole BID, Reference: historic study Day 7, 1200 mg mifepristone OD alone, after 34% fat meal"}}, "note": "“Also recorded” adds a separate entry of the source. Like-named read-outs stand apart in the source and are kept apart here."}
{"smiles": "CC#C[C@]1(O)CC[C@H]2[C@@H]3CCC4=CC(=O)CCC4=C3[C@@H](c3ccc(N(C)C)cc3)C[C@@]21C", "note": "[Mifepristone, 11β-(4-dimethylaminophenyl)-17β-hydroxy-17α-(1-propynyl)-estra-4,9-dien-3-one]", "values": [{"measurement": "geometric mean ratio (GMR) for AUCinf", "setting": "[1]; Cohort 2 vs Cohort 1", "value": 1.05}, {"measurement": "geometric mean ratio (GMR) for Cmax", "setting": "[1]; Cohort 2 vs Cohort 1", "value": 1.15}, {"measurement": "Mean Ratio Cmax (C2/C1)", "setting": "[1]; Keto 200 mg BID vs 400 mg OD, MIFE 300 mg single dose", "value": 1.15, "unit": "ng/mL"}, {"measurement": "T1/2 (mean)", "setting": "[1]; [9]", "value": 37.1, "unit": "h"}, {"measurement": "AUC", "setting": "[1]; [9]", "value": 117, "unit": "µg·h/mL"}, {"measurement": "AUC", "setting": "[1]; MIFE 300 mg single dose fasted, C2: Keto 200 mg BID", "value": 131, "unit": "µg·h/mL"}, {"measurement": "liver function of the patient", "setting": "[2]; mifepristone reduced from 600 mg to 300 mg daily", "value": "not significantly compromised"}, {"measurement": "liver function of the patient", "setting": "[2]; mifepristone reduced from 900 mg to 600 mg daily", "value": "not significantly compromised"}, {"measurement": "liver function of the patient", "setting": "[2]; mifepristone reduced from 1200 mg to 900 mg daily", "value": "not significantly compromised"}, {"measurement": "liver function of the patient", "setting": "[2]; mifepristone reduced from 1500 mg to 1200 mg daily", "value": "not significantly compromised"}, {"measurement": "increase in AUC0-24", "setting": "[3]; [10]", "value": 28, "unit": "%"}, {"measurement": "increase in Cmax", "setting": "[3]; [10]", "value": 39, "unit": "%"}, {"measurement": "AUC0-24 at 600 mg OD greater than at 300 mg OD", "setting": "[3]; Day 7 without ketoconazole", "value": 48, "unit": "%"}, {"measurement": "Cmax at 600 mg OD greater than at 300 mg OD", "setting": "[3]; Day 7 without ketoconazole", "value": 42, "unit": "%"}, {"measurement": "AUC0-24 at 600 mg OD greater than at 300 mg OD", "setting": "[3]; Day 8 with 400 mg ketoconazole", "value": 52, "unit": "%"}, {"measurement": "Cmax at 600 mg OD greater than at 300 mg OD", "setting": "[3]; Day 8 with 400 mg ketoconazole", "value": 65, "unit": "%"}, {"measurement": "half-life at 600 mg OD greater than at 300 mg OD", "setting": "[3]; Day 8 with 400 mg ketoconazole", "value": 13, "unit": "%"}, {"measurement": "AUCt (AUC0-24 hours, mean)", "setting": "[3]; MIFE 300 mg/d C1 Day 7, no ketoconazole", "value": 37.734, "unit": "µg·h/mL"}, {"measurement": "Cmax (mean)", "setting": "[3]; MIFE 300 mg/d C1 Day 8, 400 mg Keto single dose", "value": 3240, "unit": "ng/mL"}, {"measurement": "TEAEs considered possibly or probably related to mifepristone administration", "setting": "[4]; four subjects in Cohort 2 (600 mg)", "value": "dizziness, nausea, vomiting, dry mouth, and rash"}, {"measurement": "SAE", "setting": "[4]; mifepristone 300 or 600 mg OD 8 days, ketoconazole 400 mg Day 8", "value": "No subject experienced an SAE"}, {"measurement": "subjects with at least 1 TEAE", "setting": "[4]; twelve subjects, mifepristone 300 or 600 mg OD 8 days, ketoconazole 400 mg Day 8", "value": 50, "unit": "%"}, {"measurement": "deaths or SAEs", "setting": "[5]", "value": "No deaths or SAEs"}, {"measurement": "severe TEAEs", "setting": "[5]", "value": "No severe TEAEs"}, {"measurement": "corresponding increase in mifepristone AUC", "setting": "[6]; [11]", "value": 38.01, "unit": "%"}, {"measurement": "corresponding increase in mifepristone Cmax", "setting": "[6]; [11]", "value": 27.59, "unit": "%"}, {"measurement": "concentrations on Day 17 compared with Day 12", "setting": "[6]; Day 17: mifepristone 600 mg daily + ketoconazole 200 mg twice daily, Day 12: mifepristone alone", "value": "higher"}, {"measurement": "Ratio % Test/Reference, AUC0-24 (geometric mean ratio)", "setting": "[6]; [12]", "value": 138.01, "unit": "%"}, {"measurement": "Ratio % Test/Reference, Cmax (geometric mean ratio)", "setting": "[6]; [12]", "value": 127.59, "unit": "%"}, {"measurement": "effect of co-administration with ketoconazole on exposure", "setting": "[6]; mifepristone 600 mg OD + ketoconazole 200 mg BID", "value": "increased"}, {"measurement": "subjects with at least 1 treatment-emergent adverse event (TEAE)", "setting": "[7]; 12 subjects, mifepristone 300 mg single dose with ketoconazole for 14 days", "value": 25, "unit": "%"}, {"measurement": "TEAEs considered by the investigator to be related to the drug", "setting": "[7]; Example 1", "value": "No TEAE"}, {"measurement": "serious adverse effect (SAE)", "setting": "[7]; mifepristone 300 mg single dose with ketoconazole for 14 days", "value": "No subject experienced a serious adverse effect (SAE); also recorded: No subject experienced an SAE"}, {"measurement": "exposures as share of those following the highest labeled dose of mifepristone (1200 mg daily)", "setting": "[8]; 600 mg mifepristone OD + 200 mg ketoconazole BID", "value": "approximately 85%"}, {"measurement": "Ratio % Test/Ref, AUC0-24 (geometric mean ratio)", "setting": "[8]; [13]", "value": 87.27, "unit": "%"}, {"measurement": "Ratio % Test/Ref, Cmax (geometric mean ratio)", "setting": "[8]; [13]", "value": 84.64, "unit": "%"}, {"measurement": "mifepristone exposure less than that of 1200 mg mifepristone in the absence of ketoconazole", "setting": "[8]; mifepristone 600 mg co-administered with ketoconazole", "value": "13-15%"}]}
